Test results as given in patent publication US20220142959A1, “LEUCINE, ACETYL LEUCINE, AND RELATED ANALOGS FOR TREATING DISEASE” (priority 2019, published 2022).

Experiments:
[1] = test system: cerebellar Purkinje cells; experiment: Purkinje cell survival in Npc1−/− mice; type: in vivo
Excerpt: (§1) FIG. 46 is an image showing cerebellar Purkinje cell loss progressing from anterior to posterior lobes and microglial activation in untreated Npc1^−/− mice and Npc1^−/− mice treated with ADLL, ALL, and ADL. Cerebellums were stained with calbindin-b (Purkinje cells) or CD68 (activated microglia).
FIG. 47 is a scatter graph showing Purkinje cell survival at 59 days of age in untreated Npc1^−/− mice and Npc1^−/− mice treated with ADLL, ALL, and ADL.
(§2) The combination of increased survival of neurons and a less inflammatory environment in the brain could improve brain function, quality of life, and delay the progression of disease in human subjects.

[2] = test system: patients with Niemann-Pick Type C (NPC); conditions: one-month study, 12 patients; cited from earlier work
patients with ataxia = conditions: in responders; cited from earlier work
[3] = test system: rat primary cortical neurons; experiment: U18666A-mediated impairment of lysosomal fusion in rat primary cortical neurons; type: cell-based; conditions: for CTF-6 and -7 (endosomal-lysosomal fusion) / LC3-II levels: co-treated with U18666A (2 μg/mL) and compound 1 mM
Protocol: FIG. 18. is a histogram of the ratio of LC3-II normalised to βIII tubulin (expressed as a percentage of untreated (n=1)) in rat primary cortical neurons that were treated with U18666A (2 μg/ml, 24 hr) in the absence or presence of ADLL, ALL, ADL, DLL, LL, DL, and LLE (1 mM, 24 hr).
FIG. 19 is histogram of the ratio of APP-CTFs-6 and -7 normalised to their respective CTFs in untreated cells (expressed as a percentage of untreated (n=1) in rat primary cortical neurons that were treated with U18666A (2 μg/ml, 24 hr) in the absence or presence of ADLL, ALL, ADL, DLL, LL, DL, and LLE (1 mM, 24 hr).
The efficacy of ADLL, ALL, ADL, DLL, LL, DL, and LLE in alleviating the U18666A-mediated impairment of autophagosome-lysosome fusion and endosomal lysosomal fusion was investigated. In this cell-based assay of impaired EAL flux, the reappearance of basal levels of APP CTFs-6 and -7, provided an indication of improved endosomal-lysosomal fusion.
Neurons were co-treated with U18666A (2 μg/mL) along with ADLL, ALL, ADL, DLL, LL, DL, and LLE (1 mM, 24 h).

LC3-II and APP-CTFs = experiment: EAL flux in NPC1 mice (cerebellum LC3-II and APP-CTFs); type: in vivo, mouse; conditions: treated 3 weeks; for restoring autophagic flux with respect to reducing LC3-II levels: relative to untreated NPC1
Excerpt: FIG. 14 is a histogram of the ratio of LC3-II expression to βIII-tubulin in the cerebellum of mouse NPC1 brains at 9-12 weeks of age treated with ADLL, ALL, ADL, DLL, LL, DL, LLE, and miglustat (miglu.) for 3 weeks relative to untreated NPC1 cerebellum (n=4, mean±S.E.M).
FIG. 15 is a histogram of the ratio of APP-CTFs: full-length APP expression in the cerebellum of mouse NPC1 brains at 9-12 weeks of age treated with ADLL, ALL, ADL, DLL, LL, DL, LLE, and miglustat (miglu.) for 3 weeks relative to untreated NPC1 cerebellum (n=4, mean±S.E.M).
FIG. 16 is a histogram of the ratio of APP-CTF-6: full-length APP expression in the cerebellum of mouse NPC1 brains at 9-12 weeks of age treated with ADLL, ALL, ADL, DLL, LL, DL, and LLE for 3 weeks relative to untreated NPC1 cerebellum.
FIG. 17 is a histogram of the ratio of APP-CTF-7: full-length APP expression in the cerebellum of mouse NPC1 brains at 9-12 weeks of age treated with ADLL, ALL, ADL, DLL, LL, DL, and LLE for 3 weeks relative to untreated NPC1 cerebellum (n=4, mean±S.E.M).
The efficacy of ADLL, ALL, ADL, DLL, LL, DL, and LLE in alleviating the impairment of EAL flux in NPC1 mice was investigated. […] Without wishing to be bound by any particular theory, it is possible that ADL and LLE reduced autophagic vacuole (AV) build-up by inhibiting autophagosome formation, possibly through the activation mTORC1. […] Also, acetyl L-leucine (ALL), acetyl D-leucine (ADL) and L-leucine (LL) reduced CTF-7 expression, indicating some improvement in lysosomal proteolysis (FIG. 17).

[4] = test system: traumatic brain injury patient; experiment: Case report: patient with traumatic brain injury given acetyl-DL-leucine; type: in vivo, human; conditions: TBI patient
Protocol: A patient suffering from traumatic brain injury was administered acetyl-DL-leucine at a dose of 3 g per day for the first week, followed by a dose of 5 g per day.

LC3-II = conditions: WO 2018/029658; cited from earlier work
[5] = test system: rat primary cortical neurons (NE and NG cultures); experiment: Truncated tau and neuronal markers in neuron-enriched and neuron-glia cultures; type: cell-based; conditions: for tolerability (levels of synaptophysin and βIII-tubulin vs untreated control): NE and NG cultures, 1 mM, five days (DIV 9-14); for reduction of basal levels of truncated tau: NG cultures at DIV14, 1 mM, five days
Protocol: FIG. 20 is eight Western blots of tau (5E2), synaptophysin and βIII-tubulin in rat primary cortical neurons (neuron-enriched (NE) and neuron-glia (NG) cultures) in the absence and presence of ADLL, ALL, ADL, DLL, LL, DL, and LLE (1 mM, 5 days).
The efficacy of ADLL, ALL, ADL, DLL, LL, DL, and LLE in reducing truncated tau levels in neuron-glia (NG) cultures was investigated. The results of this study are provided in FIGS. 20-24 One aim of this study was to determine whether ADLL, ALL, ADL, DLL, LL, DL, and LLE conferred intrinsic neuroprotection by sustaining neuronal function under conditions of cellular overgrowth, or whether they acted indirectly through the non-autonomous modulation of glial cells. Irrespective of whether the compounds acted directly or indirectly on neurons, preventing the generation of truncated tau confers beneficial effects to neuronal integrity.
Cultures were treated for five days (DIV 9-14) with 1 mM of ADLL, ALL, ADL, DLL, LL, DL, or LLE, and were subsequently assessed for a number of neuron-specific markers that could provide a readout on neuronal health: βIII-tubulin, full-length tau, truncated tau (antibody 5E2) and synaptophysin. ADLL, ALL, ADL, DLL, LL, DL, and LLE were well-tolerated in NE and NG cultures, as evidenced by consistently equal levels of synaptophysin and βIII-tubulin detected across untreated (control) and drug-treated samples (FIGS. 20, 23, and 24). None of ADLL, ALL, ADL, DLL, LL, DL, and LLE reduced basal levels of truncated tau in NG cultures at DIV14 (FIG. 20 and FIG. 22).

[6] = test system: CD68 positive activated microglia; experiment: CD68 positive activated microglia in cerebellum of Npc1−/− mice; type: in vivo; conditions: 59 days of age, compared to Npc1−/− UT
Excerpt: as §1
FIG. 48 is a scatter graph showing frequency of CD68 positive activated microglia at 59 days of age in untreated Npc1^−/− mice and Npc1^−/− mice treated with ADLL, ALL, and ADL. CD68 cell density was measured in the cerebellum. n=5 animals per group. Mean±SD, *** p<0.0009 (one-way ANOVA).
as §2

[7] = test system: patients with cerebellar ataxia; conditions: cited from earlier work
[8] = 59 days of age, relative to untreated Npc1−/− littermates

Compound: CC(=O)NC(CC(C)C)C(=O)O (racemic) [ADLL, acetyl-DL-leucine]
- more Purkinje cells in lobule III [1, 8]: 402%
- more Purkinje cells present in lobules I and II [1, 8]: 133%
- ataxia symptoms in NPC patients [2]: symptomatic improvement of ataxia
- metabolism in the midbrain and lower brainstem (PET) (patients with ataxia): increased metabolism
- CTF-6 and -7 (endosomal-lysosomal fusion) ([3]; 24 h): reappearance of basal amounts
- LC3-II levels ([3]; 24 h): lower than the basal levels
- reduction in APP-CTFs, particularly CTF-6 and -7 (LC3-II and APP-CTFs): not accompanied by a concomitant reduction
- restoring autophagic flux with respect to reducing LC3-II levels (LC3-II and APP-CTFs): effective in restoring autophagic flux
- behaviour / level of activity after treatment ([4]; 3 g per day first week, then 5 g per day): more active behaviour
- level of activity after medication was stopped ([4]; medication stopped): returned to its original level
- LC3-II in NPC1 mouse brain (LC3-II): lowering of LC3-II
- tolerability (levels of synaptophysin and βIII-tubulin vs untreated control) [5]: well-tolerated
- reduction of basal levels of truncated tau [5]: None
- impact on frequency of CD68 positive activated microglia [6]: did not have an impact
- benefit, another case series (Pelz et al. 2015) ([7]; cerebellar patients): did not find benefit
- cerebellar ataxia symptoms, case series (Strupp et al. 2013) ([7]; cerebellar patients): symptomatic improvement
- temporal gait variability (quantitative gait analysis) ([7]; patients with cerebellar ataxia): improved

Compound: CC(C)CC(N)C(=O)O (racemic) [DLL, DL-leucine]
- CTF-6 and -7 (endosomal-lysosomal fusion) ([3]; 24 h): reappearance of basal amounts
- tolerability (levels of synaptophysin and βIII-tubulin vs untreated control) [5]: well-tolerated
- reduction of basal levels of truncated tau [5]: None

Compound: CC(=O)N[C@H](CC(C)C)C(=O)O [ADL, acetyl-D-leucine]
- Purkinje cell survival in any cerebellar lobules ([1]; 59 days of age, compared to Npc1−/− UT): did not improve
- long-term neuroprotective effects ([1]; Npc1−/− mice): did not mediate any
- CTF-6 and -7 (endosomal-lysosomal fusion) ([3]; 24 h): reappearance of basal amounts
- LC3-II levels ([3]; 24 h): lower than the basal levels
- CTF-7 expression / clearance (LC3-II and APP-CTFs): reduced
- tolerability (levels of synaptophysin and βIII-tubulin vs untreated control) [5]: well-tolerated
- reduction of basal levels of truncated tau [5]: None
- impact on frequency of CD68 positive activated microglia [6]: did not have an impact

Compound: CC(C)C[C@@H](N)C(=O)O [DL, D-leucine]
- CTF-6 and -7 (endosomal-lysosomal fusion) ([3]; 24 h): reappearance of basal amounts
- CTF-7 expression / clearance (LC3-II and APP-CTFs): positive effects
- tolerability (levels of synaptophysin and βIII-tubulin vs untreated control) [5]: well-tolerated
- reduction of basal levels of truncated tau [5]: None

Compound: CC(C)C[C@H](N)C(=O)O [LL, L-leucine]
- CTF-6 and -7 (endosomal-lysosomal fusion) ([3]; 24 h): reappearance of basal amounts
- CTF-6 accumulation (LC3-II and APP-CTFs): did reduce
- CTF-7 expression / clearance (LC3-II and APP-CTFs): reduced
- tolerability (levels of synaptophysin and βIII-tubulin vs untreated control) [5]: well-tolerated
- reduction of basal levels of truncated tau [5]: None

Compound: CCOC(=O)[C@@H](N)CC(C)C [LLE, L-leucine ethyl ester]
- CTF-6 and -7 (endosomal-lysosomal fusion) ([3]; 24 h): reappearance of basal amounts
- reduction in APP-CTFs, particularly CTF-6 and -7 (LC3-II and APP-CTFs): not accompanied by a concomitant reduction
- restoring autophagic flux with respect to reducing LC3-II levels (LC3-II and APP-CTFs): effective in restoring autophagic flux
- tolerability (levels of synaptophysin and βIII-tubulin vs untreated control) [5]: well-tolerated
- reduction of basal levels of truncated tau [5]: None

Compound: CCN(CC)CCO[C@H]1CC[C@@]2(C)C(=CC[C@@H]3[C@@H]2CC[C@]2(C)C(=O)CC[C@@H]32)C1 [U18666A, reference compound]
- CTFs-6 and 7 ([3]; U18666A alone 2 μg/mL, 24 hr, DIV14): complete absence
- LC3-II accumulation ([3]; U18666A alone, 24 h): did not cause an increase
